Legend:
tumor = assay: Animal study, Rodent Syngeneic Model, tumor growth delay; type: in vivo, BALB/c female mice; details: 50-100 uL intra-tumoral injection three times per week, 100 ug phosphor combination and 5 uM psoralen (AMT), X-Ray 75kVp, 30 mA, 3 min; repeated study same result
Procedure: A phosphor system containing the following phosphor combination: LaPO4:Ce^3+, Tb^3+, 3Ca3(PO4)2.Ca(Fl, Cl)2:Sb^3+, Mn^2+, ZrO6-: Pr, Si, CaSiO3:Mn, Pb was used in an animal study based on a Rodent Syngeneic Model. In this animal study, a 50-100 uL intra-tumoral injection three times per week using 100 ug phosphor and 5 uM psoralen (AMT) and exposed to X-Ray dose of 75kVp using 30 mA for a duration of 3 min. The groups of mice in this study consisted of eight BALB/c female mice.

B16 cancer cells = assay: Clonogenic cell kill, visible phosphor mixtures under x-ray with and without psoralen (AMT); type: cell-based
Description: Accordingly, combinations of more than two “visible” phosphors can be used in this invention. Discussed below are x-ray settings and mass ratios for clonogenic cell kill experiments. F1 refers to the insertion of an aluminum filter into the x-ray beam to act as a filter.
FIGS. 34A and 34B show cell kill comparisons (shown here as the number of surviving colonies) between B16 cancer cells treated with and without psoralen (i.e., AMT) with different phosphor mixtures, but otherwise being x-ray stimulated and containing the multiple phosphor combinations noted above. On these drawings, LDLE=low xRT dose, low energy; HDHE=high xRT dose, high energy.
On these drawings, LDLE=low xRT dose, low energy; HDHE=high xRT dose, high energy.

cells = cells kept in the dark compared to those exposed to light; cited from earlier work
sarcoma cell line KP1408 = assay: Annexin V flow cytometry apoptosis assay, 1Gy 80kVp x-ray; details: psoralen, phosphor and x-ray present
sarcoma cell line KP1619 = assay: as above; details: psoralen, phosphor and x-ray present
[1] = clinical use; cited from earlier work

## Cc1oc2c(C)c3oc(=O)cc(C)c3cc2c1CN [AMT]
tumor
  tumor growth versus saline treated group: tumor growth delay
B16 cancer cells; Red/Yellow/Green and Flamingo/Yellow/Green phosphor mixtures, x-ray stimulated, FIGS. 34A and 34B
  cell kill (surviving colonies) with versus without psoralen: improved cell kill
B16 cancer cells; flamingo, yellow, green FYG phosphor combination, FIG. 36
  cell kill with versus without psoralen: pronounced cell kill

## NCCN.[Cl][Pt]([Cl])([I])[I] [[PtCl2I2(en)]]
cells
  cytotoxicity, dark compared to light: no difference in cytotoxicity

## O=c1ccc2cc3ccoc3cc2o1 [psoralen]
Sarcoma cell line KP1408
  apoptosis: high apoptosis
Sarcoma cell line KP1619
  apoptosis: high apoptosis
B16 cancer cells; higher kVp x-ray conditions, FIGS. 35A and 35B
  cell kill with versus without psoralen: does not show an increased kill

## Oc1cccc(-c2c3nc(c(-c4cccc(O)c4)c4ccc([nH]4)c(-c4cccc(O)c4)c4nc(c(-c5cccc(O)c5)c5ccc2[nH]5)CC4)C=C3)c1 [Foscan, Tetra (m-hydroxyphenyl) chlorin]
[1]
  duration of skin photosensitivity: approximately 2 weeks
